{"source": "patent US20230277612A1", "about": "“SAPONIN DERIVATIVES FOR USE IN MEDICINE” (priority 2020, published 2023)", "key": {"A431 (EGFR++) cells": {"tested_on": "A431 (EGFR++) cells", "test": "Saponin derivative titration in presence and absence of […] EGFdianthin, cell viability", "format": "cell-based", "settings": "for IC50: read-out: Toxicity as single compound"}, "HeLa cells [1]": {"tested_on": "HeLa cells", "test": "Pilot cell-based bioassay: 10 μg/ml saponin with or without 1.5 pM dianthin-EGF, 72 h, relative cell viability", "parameters": "key to Cell killing activity (+ or −): Cell killing activity (+ or −); Cell killing activity (+ or −)", "settings": "for Cell viability after 72 h: 10 microgram/ml saponin + […] dianthin-EGF, HeLa cells", "experimental": "HeLa cells were incubated for 72 h with the following constructs and cell viability before and after the 72 h-incubation was assessed. In the experiments, cells were exposed to 1.5 pM dianthin-EGF conjugate. A negative control were cells incubated with buffer vehicle and 10 microgram/ml saponin, without dianthin-EGF. Cell viability was set to 100% for the control in which both saponin and EGF-dianthin were omitted. […] Cell viability after 72 h was essentially 0%. For the chemically modified saponin variants, 10 microgram/ml saponin was tested in combination with 1.5 pM dianthin-EGF."}, "HeLa (EGFR+) cells": {"tested_on": "HeLa (EGFR+) cells", "test": "Saponin titration in presence and absence of […] EGFdianthin, cell viability", "format": "cell-based", "settings": "for IC50: read-out: General toxicity (IC50 / highest concentration)", "experimental": "To extend this test, saponins from other sources were analyzed. A saponin purified from a root extract of Gypsophila elegans M.Bieb. […] FIG. 63C)."}, "[2]": {"tested_on": "EGFR expressing cells (A431)", "test": "Saponin titration on fixed 10 pM EGFdianthin, cell viability (MTS)", "format": "cell-based", "settings": "without EGFdianthin"}, "A2058 (EGFR−) cells": {"tested_on": "A2058 (EGFR−) cells", "test": "Saponin derivative titration in presence and absence of […] EGFdianthin, cell viability", "format": "cell-based"}, "[3]": {"tested_on": "EGFR expressing cells (A431)", "test": "Saponin titration on fixed 10 pM cetuximab-saporin, cell viability (MTS)", "format": "cell-based", "settings": "without cetuximab-saporin"}, "HeLa cells [4]": {"tested_on": "HeLa cells", "test": "cells", "format": "cell-based", "experimental": "(§1) (FIGS. 66a and 66B). Next toxicity was determined, for this the modified saponins were titrated on HeLa and A431 cells. […] Next toxicity was determined, for this the modified saponins were titrated on HeLa and A431 cells."}, "[5]": {"test": "Critical micellar concentration (CMC) by ANS fluorescence", "format": "physicochemical", "settings": "for CMC value: PBS", "method_in_brief": "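Saponin solutions (dry-weight concentrations 1–1400 μM) in purified water or Dulbecco's PBS+/+ were mixed with ANS, 75.86 μM, 6 μg per sample. ANS fluorescence was read at 355 nm excitation and 460 nm emission. CMC was taken from the rise in ANS fluorescence yield as the dye partitions into micelles.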"}, "[6]": {"tested_on": "EGFR expressing cells (HeLa)", "format": "cell-based", "settings": "HeLa; + 5 pM EGFdianthin; read-out: IC50 endosomal escape enhancing activity"}, "[7]": {"test": "pH dependent hydrolysis of the hydrazone bond (HCl solution pH 3, MALDI-TOF-MS)", "format": "physicochemical", "settings": "HCl solution at pH 3"}, "human red blood cells": {"tested_on": "human red blood cells", "test": "cells", "format": "cell-based", "settings": "Homo sapiens, Erythrocyte", "experimental": "Red blood cells (RBCs) were isolated from a buffy coat using a Ficoll gradient. The obtained RBC pellet (˜4-5 ml) was washed 2× with 50 ml DPBS (without Ca^2+/Mg^2+, PAN-Biotech GmbH). Cells were pelleted by centrifugation for 10 min, 800×g at RT. RBC were counted and resuspended at 500.000.000 c/ml in DPBS (without Ca^2+/Mg^2+), based on total cell count.\nSaponin dilutions were prepared in DPBS (with Ca^2+/Mg^2+, PAN-Biotech GmbH), at 1.11× final strength. For positive lysis control a 0.02% Triton-X100 solution was prepared in DPBS^+/+. Of all compound solutions 135 μl was dispensed/well in a 96 well V-bottom plate. To this 15 μl RBC suspension was added and mixed shortly (10 sec-600 rpm). The plate was incubated 30 min at RT, with gentle agitation. Afterwards the plate was spun for 10 min at 800×g to pellet the RBC and 100-120 μl supernatant was transferred to a standard 96 wp (96 well-plate).\nSaponin dilutions were prepared in DPBS (with Ca^2+/Mg^2+, PAN-Biotech GmbH), at 1.11× final strength. For positive lysis control a 0.02% Triton-X100 solution was prepared in DPBS+/+. Of all compound solutions 135 μl was dispensed/well in a 96 well V-bottom plate. To this 15 μl RBC suspension was added and mixed shortly (10 sec-600 rpm). The plate was incubated 30 min at RT, with gentle agitation. Afterwards the plate was spun for 10 min at 800×g to pellet the RBC and 100-120 μl supernatant was transferred to a standard 96 wp (96 well-plate)."}, "HSP27 mRNA [8]": {"tested_on": "HSP27 mRNA", "test": "HSP27 mRNA gene silencing analysis in A431 cells", "format": "cell-based", "settings": "SO1861-Ald-EMCH alone", "source_text": "(§2) RNA from cells was isolated and analysed according to standard protocols (Biorad). qPCR primers that were used are indicated in Table A10."}, "A431 cells": {"tested_on": "A431 cells", "test": "cells", "format": "cell-based", "settings": "Homo sapiens", "experimental": "as §1"}, "HSP27 mRNA [9]": {"tested_on": "HSP27 mRNA", "test": "HSP27 mRNA gene silencing analysis in SK-BR-3 cells", "format": "cell-based", "settings": "in the presence of 4000 nM or 4829 nM SO1861-Ald-EMCH; read-out: IC50(SK-BR3) HSP27 gene silencing", "source_text": "as §2"}, "[10]": {"settings": "10 μg/ml SO1861 or SO1861-derivative + […] EGFdianthin"}, "[11]": {"settings": "10 μg/ml SO1861 or SO1861-derivative alone"}}, "note": "Like-named read-outs stand apart in the source and are kept apart here. [BNA] = bridged nucleic acid sugar (2',4'-BNA), type not further given; d = 2'-deoxy (DNA)", "data": [{"compound": "CC(=O)OC1C(C)OC(OC2C(C)OC(OC(=O)C34CCC(C)(C)CC3C3=CCC5C6(C)CCC(OC7OC(C(=O)O)C(O)C(OC8OCC(O)C(O)C8O)C7OC7OC(CO)C(O)C(O)C7O)C(C)(C=NNC(=O)CCOCCOCCOCCOCCN=[N+]=[N-])C6CCC5(C)C3(C)CC4O)C(OC3OC(C)C(OC4OCC(O)C(OC5OC(CO)C(O)C(O)C5O)C4O)C(O)C3O)C2O)C(O)C1OC1OCC(O)C(O)C1O", "note": "(centres unmarked)", "values": [{"measurement": "IC50", "setting": "A431 (EGFR++) cells; A431, without EGFdianthin", "value": "> 10", "unit": "µM"}, {"measurement": "Cell killing activity (+ or −)", "setting": "HeLa cells [1]; [10]", "value": "+"}, {"measurement": "Cell killing activity (+ or −)", "setting": "HeLa cells [1]; [11]", "value": "−"}, {"measurement": "IC50", "setting": "HeLa (EGFR+) cells; in absence of EGFdianthin", "value": "> 10", "unit": "µM"}]}, {"compound": "CC(=O)OC1C(C)OC(OC2C(C)OC(OC(=O)[C@]34CCC(C)(C)CC3C3=CCC5[C@@]6(C)CC[C@H](OC7OC(C(=O)O)C(O)C(OC8OCC(O)C(O)C8O)C7OC7OC(CO)C(O)C(O)C7O)[C@@](C)(C=O)C6CC[C@@]5(C)[C@]3(C)C[C@H]4O)C(OC3OC(C)C(OC4OCC(O)C(OC5OC(CO)C(O)C(O)C5O)C4O)C(O)C3O)C2O)C(O)C1OC1OCC(O)C(O)C1O", "note": "(some centres unmarked) [SO1861, reference compound]", "values": [{"measurement": "Cell killing activity of saponin alone", "setting": "[2]", "value": "no cell killing activity"}, {"measurement": "Toxicity as single compound", "setting": "A431 (EGFR++) cells; A431, without EGFdianthin", "value": "strong cell viability reduction"}, {"measurement": "Toxicity as single compound", "setting": "A2058 (EGFR−) cells; without EGFdianthin", "value": "strong cell viability reduction"}, {"measurement": "Cell killing activity (+ or −)", "setting": "HeLa cells [1]; [10]", "value": "+"}, {"measurement": "Cell killing activity (+ or −)", "setting": "HeLa cells [1]; [11]", "value": "−"}, {"measurement": "Cell viability after 72 h", "setting": "HeLa cells [1]", "value": "~0", "unit": "%"}, {"measurement": "General toxicity (IC50 / highest concentration)", "setting": "HeLa (EGFR+) cells; in absence of EGFdianthin", "value": "strong cell viability reduction"}, {"measurement": "Cell killing activity of saponin alone", "setting": "[3]", "value": "no cell killing activity"}, {"measurement": "IC50", "setting": "HeLa cells [4]; saponin alone, read-out: IC50 toxicity", "value": 1000, "unit": "nM"}, {"measurement": "CMC value", "setting": "[5]", "value": 185, "unit": "µM"}, {"measurement": "CMC", "setting": "[5]; Table A7, determined in PBS", "value": "185 ± 19", "unit": "µM"}]}, {"compound": "CC(=O)OC1C(C)OC(OC2C(C)OC(OC(=O)[C@]34CCC(C)(C)CC3C3=CCC5[C@@]6(C)CC[C@H](OC7OC(C(=O)O)C(O)C(OC8OCC(O)C(O)C8O)C7OC7OC(CO)C(O)C(O)C7O)[C@@](C)(/C=N/NC(=O)CCCCCN7C(=O)C=CC7=O)C6CC[C@@]5(C)[C@]3(C)C[C@H]4O)C(OC3OC(C)C(OC4OCC(O)C(OC5OC(CO)C(O)C(O)C5O)C4O)C(O)C3O)C2O)C(O)C1OC1OCC(O)C(O)C1O", "note": "(some centres unmarked) [SO1861-Ald-EMCH]", "values": [{"measurement": "IC50", "setting": "[6]", "value": 2, "unit": "µM"}, {"measurement": "Hydrolysis of the hydrazone bond", "setting": "[7]", "value": "gets cleaved"}, {"measurement": "IC50", "setting": "human red blood cells; Table A5, read-out: IC50 nM (hemolysis)", "value": "> 1e+06", "unit": "nM"}, {"measurement": "IC50", "setting": "human red blood cells; Table A6, read-out: IC50 nM (hemolysis)", "value": "> 1e+06", "unit": "nM"}, {"measurement": "IC50", "setting": "human red blood cells; read-out: IC50 hemolytic activity", "value": "> 1e+06", "unit": "nM"}, {"measurement": "Cell killing activity of saponin alone", "setting": "[2]", "value": "no cell killing activity"}, {"measurement": "IC50", "setting": "A431 (EGFR++) cells; Homo sapiens, A-431", "value": "> 25", "unit": "µM"}, {"measurement": "IC50", "setting": "A2058 (EGFR−) cells; Homo sapiens, read-out: Toxicity as single compound", "value": "> 25", "unit": "µM"}, {"measurement": "HSP27 gene silencing activity alone", "setting": "HSP27 mRNA [8]", "value": "no HSP27 gene silencing activity"}, {"measurement": "Cell killing activity (+ or −)", "setting": "HeLa cells [1]; [10]", "value": "+"}, {"measurement": "Cell killing activity (+ or −)", "setting": "HeLa cells [1]; [11]", "value": "−"}, {"measurement": "Cell viability after 72 h", "setting": "HeLa cells [1]", "value": "reduced cell viability"}, {"measurement": "IC50", "setting": "HeLa (EGFR+) cells; Homo sapiens", "value": "> 25", "unit": "µM"}, {"measurement": "Cell killing activity of saponin alone", "setting": "[3]", "value": "no cell killing activity"}, {"measurement": "IC50", "setting": "A431 cells; A-431, Table A6, saponin alone, read-out: IC50 nM (Toxicity)", "value": 30000, "unit": "nM"}, {"measurement": "IC50", "setting": "A431 cells; A-431, text, saponin alone, read-out: IC50 toxicity", "value": 30000, "unit": "nM"}, {"measurement": "IC50", "setting": "HeLa cells [4]; Homo sapiens, HeLa, Table A5, saponin alone, read-out: IC50 nM (Toxicity)", "value": "> 100000", "unit": "nM"}, {"measurement": "IC50", "setting": "HeLa cells [4]; Homo sapiens, HeLa, saponin alone, read-out: IC50 toxicity", "value": "> 100000", "unit": "nM"}, {"measurement": "CMC value", "setting": "[5]", "value": "> 800", "unit": "µM"}]}, {"compound": "HSP27BNA: antisense BNA oligo against HSP27 mRNA, 5′-GGCacagccagtgGCG-3′ (antisense GGCACAGCCAGTGGCG; sugars from the 5' end [BNA]3 d10 [BNA]3, backbone and methylation of C not given here)", "values": [{"measurement": "IC50", "setting": "HSP27 mRNA [9]", "value": 0.002, "unit": "µM"}]}]}
